This note sets out measurements from patent US20120015809A1 (priority 2009, published 2012).

The data set relates to Ralstonia solanacearum (race 1, biovar 1; tomato strain Rs5). The settings on record: 72 h; for Number of colonies: mean ± standard error (n = 6).

Each structure is given as a SMILES string. Structures can show the parent of a compound that is named as a salt. Where two headings read alike, the source gives them in different places.

Take `[H]/N=C(/N)N[C@H]1[C@H](O)[C@@H](O)[C@H](O[C@@H]2O[C@@H](C)[C@](O)(C=O)[C@H]2O[C@@H]2O[C@@H](CO)[C@H](O)[C@@H](O)[C@@H]2NC)[C@@H](N/C(N)=N\[H])[C@@H]1O` [Streptomycin, streptomycin sulfate]: the “Mortality (%)” value was 0.9% (200 mg kg^−1 soil); 11.9% (400 mg kg^−1 soil); 21.6% (800 mg kg^−1 soil); 21% (800 mg kg^−1 soil, listed as streptomycin); 75.3% (1500 mg kg^−1 soil). The Number of colonies came out at 256000 ± 16500 (200 mg kg^−1 soil), 227000 ± 78100 (400 mg kg^−1 soil), 204000 ± 82900 (800 mg kg^−1 soil) and 63800 ± 42300 (1500 mg kg^−1 soil).
